Source: US12638394B2, “Skin sensitization measuring reagent, method for measuring skin sensitization, and compound” (FUJIFILM Corporation, priority 2019, dated 2026)

Experiment: Reactivity of nucleophilic reagent with evaluation substance (depletion, HPLC), primary evaluation
Conditions: 1 mmol/L test substance solution, 25° C., 24 hours
Description: 1) A nucleophilic reagent is dissolved in DMSO (manufactured by FUJIFILM Wako Pure Chemical Corporation) depending on its molecular weight to prepare a 2 mmol/L nucleophilic reagent solution.
2) To a 500 mL container, 149.5 mL of the buffer solution is added using a 50 mL measuring pipette, and 0.5 mL of the 2 mmol/L nucleophilic reagent solution is added and mixed by inversion so that the solution is diluted 300-fold (6.667 μmol/L). This solution is stored in a freezer at −70° C. or lower.
(§1) One solvent with which a 1 mmol/L test substance solution can be prepared is selected according to the following order of priority: water, acetonitrile, acetone, and a 5% solution of DMSO in acetonitrile. If water, acetonitrile, or acetone is selected, a 20 mmol/L test substance solution is first prepared. A suitable amount of the test substance is weighed and completely dissolved by adding the solvent to prepare a 20 mmol/L solution. A portion of the 20 mmol/L solution is then collected and diluted 20-fold with the same solvent to prepare a 1 mmol/L test substance solution. If a 5% by mass solution of DMSO in acetonitrile is selected, a 20 mmol/L test substance solution is prepared in the same manner as above. A portion of the solution is then collected and diluted 20-fold with acetonitrile to prepare a 1 mmol/L test substance solution.
Test substance solutions are prepared on a 96-well plate (U96 PP-0.5 ML NATURAL, Thermo (NUNC)), mainly using a 12-channel pipette, and the reagent is added in the following amount:
Nucleophilic reagent: 150 μL
(§2) Test substance solution: 50 μL
(§3) The plate is firmly sealed with a plate seal (resistant embossed seal (TORAST™ 96-well Seal E Type (TORAST is a registered trademark)), Shimadzu GLC Ltd.) and is shaken on a plate shaker (Titramax 100, Heidolph Instruments). After being spun down in a centrifuge, the reaction solutions are incubated at 25° C. in a light-shielded state for 24 hours.
(§4) After incubation for 24 hours, the plate seal is removed, and 50 μL of the reaction stop solution is added to each sample to stop the reaction.
The HPLC measurement conditions for the nucleophilic reagents are given below. As the elution conditions, condition 1, 2 or 3 was selected depending on the nucleophilic reagent.
(§5) The depletion of the nucleophilic reagent is calculated from the mean peak area of the nucleophilic reagent by the following equation: […]
(§6) Ten substances shown in the following table were used for reactivity evaluation. For primary evaluation, the upper three substances were used. […] For secondary evaluation, the lower seven substances were used. The substances selected for the secondary evaluation were substances that are difficult to distinguish between sensitizers and non-sensitizers by analysis using NAC and NAL. As above, the substances selected for the secondary evaluation were five substances that mainly react with cysteine and two substances that mainly react with lysine.

SMILES	reactivity (nucleophilic reagent depletion) with 2-methyl-2H-isothiazol-3-one
CC(=O)N[C@@H](CS)C(=O)N[C@@H](CCCCN)C(=O)N[C@@H](CC(=O)O)C(=O)NCc1cccc2ccccc12 [Compound 4]	about 100%
NCCCC[C@H](NC(=O)[C@H](CS)NC(=O)CO)C(=O)N[C@@H](CC(=O)O)C(=O)NCc1cccc2ccccc12 [Compound 13]	about 100%
NCCCCC(NC(=O)[C@H](CS)NC(=O)[C@H](Cc1ccccn1)NC(=O)Cc1ccc2ccccc2c1)C(N)=O (some centres unmarked) [Compound 16]	about 100%
NCCCCC(NC(=O)[C@H](CS)NC(=O)[C@H](Cc1c[nH]cn1)NC(=O)Cc1ccc2ccccc2c1)C(N)=O (some centres unmarked) [Compound 19]	about 100%
NCCCCC(NC(=O)[C@H](CS)NC(=O)[C@H](Cc1ccccn1)NC(=O)Cc1ccc2ccccc2c1)C(=O)O (some centres unmarked) [Compound 21]	about 100%
NCCCCC(NC(=O)[C@H](CS)NC(=O)C(Cc1ccncc1)NC(=O)Cc1ccc2ccccc2c1)C(=O)O (some centres unmarked) [Compound 22]	about 100%
NCCCCC(NC(=O)[C@H](CS)NC(=O)C(Cc1c[nH]cn1)NC(=O)Cc1ccc2ccccc2c1)C(=O)O (some centres unmarked) [Compound 24]	about 100%
NCCCC[C@H](NC(=O)C(Cc1ccncc1)NC(=O)Cc1ccc2ccccc2c1)C(=O)NC(CS)C(=O)O (some centres unmarked) [Compound 27]	about 100%
NCCCC[C@H](NC(=O)C(Cc1c[nH]cn1)NC(=O)Cc1ccc2ccccc2c1)C(=O)NC(CS)C(=O)O (some centres unmarked) [Compound 29]	about 100%
NCCCCC(NC(=O)Cc1ccc2ccccc2c1)C(=O)N[C@@H](CS)C(=O)O (some centres unmarked) [Compound 30]	about 100%

Experiment: Depletion of nucleophilic reagent by evaluation substance (HPLC)
Conditions: 1 mmol/L test substance solution, 25° C., 24 hours
Text: as §1, §3, §4, §5, §6
Using the three substances shown in the following table, 1 mmol/L solutions were prepared and used for testing.
A solution prepared by dissolving NAC and NAL in a phosphate buffer solution (pH 8.0) prepared in accordance with “(1-2) 100 mmol/L Phosphate Buffer Solution (pH 8.0)” of “(1) Preparation of Various Solutions” above such that the concentration of each nucleophilic reagent was 13.333 μmol/L was used as a nucleophilic reagent stock solution.
Nucleophilic reagent stock solution: NAC and NAL, 75 μL each
as §2
The procedures described in “(4-2) Reaction” and “(4-3) Reaction Stop” of “(4) Reaction” above were performed.
In addition, the nucleophilic reagent depletion (%) was determined by the method described in “(6) Data Analysis” above.

SMILES	depletion for 5-methyl-2,3-hexanedione	depletion for diphenylcyclopropenone	depletion for nonanoyl chloride
CC(=O)N[C@@H](CCCCN)C(=O)N[C@@H](CS)C(=O)NCc1cccc2ccccc12 [Compound 2]	16.7%	34.9%	65.2%
CC(=O)N[C@@H](CS)C(=O)N[C@@H](CCCCN)C(=O)N[C@@H](CC(=O)O)C(=O)NCc1cccc2ccccc12 [Compound 4]	13.8%	100%	67.6%

Experiment: Reactivity of nucleophilic reagent, secondary evaluation with seven substances
Conditions: all six substances except 5-methyl-2,3-hexanedione
Text: as §1
The plate is firmly sealed with a plate seal (resistant embossed seal (TORAST™ 96-well Seal E Type (TORAST is a registered trademark)), Shimadzu GLC Ltd.) and is shaken on a plate shaker (Titramax 100, Heidolph Instruments). After being spun down in a centrifuge, the reaction solutions are incubated at 25° C. in a light-shielded state for 24 hours. […]
as §5

SMILES	reactivity with six secondary evaluation substances compared with NAC or NAL
CC(=O)N[C@@H](CCCCN)C(=O)N[C@@H](CS)C(=O)NCc1cccc2ccccc12 [Compound 2]	higher than that of NAC or NAL alone and the mean depletion
CC(=O)N[C@@H](CS)C(=O)N[C@@H](CCCCN)C(=O)N[C@@H](CC(=O)O)C(=O)NCc1cccc2ccccc12 [Compound 4]	higher than that of NAC or NAL alone and the mean depletion

Experiment: not given
Conditions: class given for the evaluation substance; cited from earlier work

SMILES	Skin sensitization
Cn1sccc1=O [2-Methyl-2H-isothiazol-3-one]	Moderate
CC(C=O)Cc1ccc(C(C)C)cc1 (centres unmarked) [Cyclamen aldehyde]	Strong sensitizer
O=c1c(-c2ccccc2)c1-c1ccccc1 [Diphenylcyclopropenone]	Strong sensitizer
C=C(C)C(=O)OCCOC(=O)C(=C)C [Ethylene glycol dimethacrylate]	Strong sensitizer
CC(CC=O)CCCC(C)(C)O (centres unmarked) [Hydroxycitronellal]	Strong sensitizer
CCCCCCCCC(=O)Cl [Nonanoyl chloride]	Moderate
O=C(O)c1ccccc1O [Salicylic acid]	Non-sensitizer
O=C(O)c1ccc2c(c1)C(=O)OC2=O [Trimellitic anhydride]	Strong sensitizer
